From BindingDB's records for doi:10.7270/Q2WH2TT9 (D3R/Abbott, 2020)

molecular target: Angiopoietin-1 receptor (Homo sapiens, UniProt Q02763); assay: D3R2025
Excerpt: D3R2025

Sequence of Angiopoietin-1 receptor (Q02763 whole entry): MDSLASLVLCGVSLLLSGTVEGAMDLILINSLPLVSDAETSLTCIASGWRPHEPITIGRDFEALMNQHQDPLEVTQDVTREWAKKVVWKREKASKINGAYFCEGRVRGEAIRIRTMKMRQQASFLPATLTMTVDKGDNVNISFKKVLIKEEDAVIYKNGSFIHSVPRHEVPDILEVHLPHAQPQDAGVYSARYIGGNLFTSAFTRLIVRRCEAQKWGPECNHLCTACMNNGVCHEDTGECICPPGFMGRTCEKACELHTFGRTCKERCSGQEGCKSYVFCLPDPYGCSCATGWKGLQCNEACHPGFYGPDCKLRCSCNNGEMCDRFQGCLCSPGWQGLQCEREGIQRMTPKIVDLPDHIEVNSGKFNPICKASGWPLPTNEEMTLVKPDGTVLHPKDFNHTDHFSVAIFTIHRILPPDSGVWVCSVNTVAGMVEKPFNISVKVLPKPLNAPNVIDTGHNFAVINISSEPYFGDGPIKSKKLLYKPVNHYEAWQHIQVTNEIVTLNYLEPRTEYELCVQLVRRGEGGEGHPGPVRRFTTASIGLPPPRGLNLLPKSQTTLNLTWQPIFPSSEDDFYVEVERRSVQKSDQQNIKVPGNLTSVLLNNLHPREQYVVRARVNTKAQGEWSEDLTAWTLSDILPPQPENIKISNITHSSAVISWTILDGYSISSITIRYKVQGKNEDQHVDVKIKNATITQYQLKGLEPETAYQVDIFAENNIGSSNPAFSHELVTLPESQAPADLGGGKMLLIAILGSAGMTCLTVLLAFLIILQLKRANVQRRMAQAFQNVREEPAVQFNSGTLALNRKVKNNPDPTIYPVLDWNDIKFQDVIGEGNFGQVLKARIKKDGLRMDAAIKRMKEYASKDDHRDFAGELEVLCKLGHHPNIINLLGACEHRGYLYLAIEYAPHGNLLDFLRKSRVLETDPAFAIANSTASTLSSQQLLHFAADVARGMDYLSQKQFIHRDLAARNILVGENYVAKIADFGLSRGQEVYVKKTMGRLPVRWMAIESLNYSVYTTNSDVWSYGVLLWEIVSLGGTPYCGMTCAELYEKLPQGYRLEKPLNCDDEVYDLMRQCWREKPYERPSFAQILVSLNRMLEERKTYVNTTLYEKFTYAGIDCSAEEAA

Compared with `CC(C)c1nc(-c2ccc(F)c(NS(=O)(=O)c3c(F)cccc3F)c2)c(-c2ccnc(Nc3ccc(N4CCOCC4)nc3)n2)s1`, `CC(C)c1nc(-c2cccc(NS(=O)(=O)c3c(F)cccc3F)c2F)c(-c2ccnc(Nc3ccc(N4CCOCC4)nc3)n2)s1` [D3RKN_29] is 7.1-fold lower in Kd: 0.024 µM for the first, 0.0034 µM for the second. The second binds more tightly here.

Going from `CC(C)c1nc(-c2cccc(NS(=O)(=O)c3c(F)cccc3F)c2)c(-c2ccnc(Nc3ccc(N4CCOCC4)nc3)n2)s1` [D3RKN_118] to `CC(=O)N1CCN(c2ccc(Nc3nccc(-c4sc(C(C)C)nc4-c4cccc(NS(=O)(=O)c5cccc(Cl)c5)c4)n3)cn2)CC1` [D3RKN_98], the Kd rises from 0.027 µM to 0.093 µM (3.4-fold). The first binds more tightly here.

Going from `O=C(Nc1cccc(-c2nn3ncccc3c2-c2ccnc(Nc3ccccc3)n2)c1)c1c(F)cccc1F` [D3RKN_56] to `O=C(Nc1cccc(-c2nn3ncccc3c2-c2ccnc(Nc3cccnc3)n2)c1)c1c(F)cccc1F`, the Kd rises from 2.5 µM to 10 µM (4-fold).

`CCOC(=O)N1CCC(n2cnc(-c3ccc(F)cc3)c2-c2ccnc(N)n2)CC1` [4-[5-(2-Amino-pyrimidin-4-yl)-4-(4-fluoro-phenyl)-imidazol-1-yl]-piperidine-1-carboxylic acid ethyl ester] and `Nc1nccc(-c2c(-c3ccc(F)cc3)ncn2C2CCN(CC(F)(F)F)CC2)n1` [4-{5-(4-Fluoro-phenyl)-3-[1-(2,2,2-trifluoro-ethyl)-piperidin-4-yl]-3H-imidazol-4-yl}-pyrimidin-2-ylamine] are the same in Kd: 10 µM for the first, 10 µM for the second.

`CNc1nccc(-c2c(-c3ccc(F)cc3)ncn2C2CCN(C)CC2)n1` [{4-[5-(4-Fluoro-phenyl)-3-(1-methyl-piperidin-4-yl)-3H-imidazol-4-yl]-pyrimidin-2-yl}-methyl-amine] and `CCNc1nccc(-c2c(-c3ccc(F)cc3)ncn2C2CCN(C)CC2)n1` [Ethyl-{4-[5-(4-fluoro-phenyl)-3-(1-methyl-piperidin-4-yl)-3H-imidazol-4-yl]-pyrimidin-2-yl}-amine] are the same in Kd: 10 µM for the first, 10 µM for the second.

`CNc1nccc(-c2c(-c3ccc(F)cc3)ncn2CCCN2CCOCC2)n1` and `CSc1nccc(-c2c(-c3ccc(F)cc3)ncn2CCCN2CCOCC2)n1` are the same in Kd: 10 µM for the first, 10 µM for the second.

`Cc1cc(-c2c(-c3ccc(F)cc3)ncn2CCCN2CCOCC2)nc(N)n1` and `COc1nccc(-c2c(-c3ccc(F)cc3)ncn2CCCN2CCOCC2)n1` [4-{3-[4-(4-Fluoro-phenyl)-5-(2-methoxy-pyrimidin-4-yl)-imidazol-1-yl]-propyl}-morpholine] are the same in Kd: 10 µM for the first, 10 µM for the second.

First: COc1cc(Nc2nccc(-c3c(-c4cccc(NC(=O)c5c(F)cccc5F)c4)nn4ncccc34)n2)cc(OC)c1OC [D3RKN_124]
Second: O=C(Nc1cccc(-c2nn3ncccc3c2-c2ccnc(Nc3cccc(C(F)(F)F)c3)n2)c1)c1c(F)cccc1F [D3RKN_119]
The Kd of the first is 50-fold lower: 0.2 µM for the first, 10 µM for the second. The first binds more tightly here.

Compared with `CC(C)c1nc(-c2cccc(NS(=O)(=O)c3ccccc3)c2)c(-c2ccnc(Nc3ccc4c(c3)CN(C)CC4)n2)s1` [D3RKN_117], `CCc1nc(-c2cccc(N(C)S(=O)(=O)c3ccccc3)c2)c(-c2ccnc(Nc3ccc(N4CCN(C(C)=O)CC4)nc3)n2)s1` [D3RKN_120] is 35-fold higher in Kd: 0.092 µM for the first, 3.2 µM for the second.
